# Assay results as given in ChEMBL document CHEMBL1155439, “Transient receptor potential ankyrin 1 (TRPA1) channel as emerging target for novel analgesics and anti-inflammatory agents” (J Med Chem, 2010).
# Molecular target: T1, Transient receptor potential cation channel subfamily A member 1 (Homo sapiens, UniProt O75762)
# Assay: Antagonist activity at TRPA1 channel at 10 uM
# Assay type: functional
# T1 sequence (O75762 whole entry): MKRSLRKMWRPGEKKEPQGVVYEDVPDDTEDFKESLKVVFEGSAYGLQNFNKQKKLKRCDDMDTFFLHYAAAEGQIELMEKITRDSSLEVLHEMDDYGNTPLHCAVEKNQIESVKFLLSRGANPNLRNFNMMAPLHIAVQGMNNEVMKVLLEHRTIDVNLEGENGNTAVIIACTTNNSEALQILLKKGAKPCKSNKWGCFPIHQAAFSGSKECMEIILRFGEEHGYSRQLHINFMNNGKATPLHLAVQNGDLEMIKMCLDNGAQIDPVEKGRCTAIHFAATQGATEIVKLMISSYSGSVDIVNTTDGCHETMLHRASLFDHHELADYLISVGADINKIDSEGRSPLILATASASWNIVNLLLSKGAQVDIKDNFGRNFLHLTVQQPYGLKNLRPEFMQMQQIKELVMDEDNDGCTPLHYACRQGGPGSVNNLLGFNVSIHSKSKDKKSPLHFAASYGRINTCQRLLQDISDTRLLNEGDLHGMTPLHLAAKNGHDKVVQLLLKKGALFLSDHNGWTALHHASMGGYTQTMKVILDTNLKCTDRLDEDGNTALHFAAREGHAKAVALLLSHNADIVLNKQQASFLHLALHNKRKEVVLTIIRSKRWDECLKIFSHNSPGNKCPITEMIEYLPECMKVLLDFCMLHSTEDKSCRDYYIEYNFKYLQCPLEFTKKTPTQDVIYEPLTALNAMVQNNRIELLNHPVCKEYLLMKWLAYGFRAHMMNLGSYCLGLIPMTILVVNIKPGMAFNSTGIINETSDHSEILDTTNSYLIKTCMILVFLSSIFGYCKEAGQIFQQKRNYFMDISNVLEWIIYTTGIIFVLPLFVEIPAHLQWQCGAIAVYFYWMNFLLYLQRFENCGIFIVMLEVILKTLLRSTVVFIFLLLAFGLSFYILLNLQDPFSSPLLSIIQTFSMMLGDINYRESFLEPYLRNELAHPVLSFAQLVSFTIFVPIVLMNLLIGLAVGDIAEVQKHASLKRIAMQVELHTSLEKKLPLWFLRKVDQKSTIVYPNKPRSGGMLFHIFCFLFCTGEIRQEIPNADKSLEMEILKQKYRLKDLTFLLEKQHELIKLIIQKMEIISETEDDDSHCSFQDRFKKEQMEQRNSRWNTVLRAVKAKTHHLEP
row,SMILES,inhibition [%]
1,CN1C(=O)c2cccc(CC(=O)Nc3nc(-c4ccc(C(F)(F)F)c(F)c4)cs3)c2C1=O,100
2,Cc1cc(-c2csc(NC(=O)Cc3cccc4c3C(=O)N(C)C4=O)n2)ccc1Cl,91
3,CN1C(=O)c2cccc(CC(=O)Nc3nc(-c4cc(F)c(C(F)(F)F)c(F)c4)cs3)c2C1=O,100
4,CC(C)c1ccc(NC(=O)Cc2cccc3c2C(=O)N(C)C3=O)cc1,21

# Molecular target: Transient receptor potential cation channel subfamily A member 1 (Rattus norvegicus, UniProt Q6RI86)
# Assay: Agonist activity at rat TRPA1 channel expressed in HEK293 cells assessed as increase in intracellular calcium influx
# Assay type: functional, cell-based
# Transient receptor potential cation channel subfamily A member 1 (Rattus norvegicus, UniProt Q6RI86), sequence (Q6RI86 whole entry): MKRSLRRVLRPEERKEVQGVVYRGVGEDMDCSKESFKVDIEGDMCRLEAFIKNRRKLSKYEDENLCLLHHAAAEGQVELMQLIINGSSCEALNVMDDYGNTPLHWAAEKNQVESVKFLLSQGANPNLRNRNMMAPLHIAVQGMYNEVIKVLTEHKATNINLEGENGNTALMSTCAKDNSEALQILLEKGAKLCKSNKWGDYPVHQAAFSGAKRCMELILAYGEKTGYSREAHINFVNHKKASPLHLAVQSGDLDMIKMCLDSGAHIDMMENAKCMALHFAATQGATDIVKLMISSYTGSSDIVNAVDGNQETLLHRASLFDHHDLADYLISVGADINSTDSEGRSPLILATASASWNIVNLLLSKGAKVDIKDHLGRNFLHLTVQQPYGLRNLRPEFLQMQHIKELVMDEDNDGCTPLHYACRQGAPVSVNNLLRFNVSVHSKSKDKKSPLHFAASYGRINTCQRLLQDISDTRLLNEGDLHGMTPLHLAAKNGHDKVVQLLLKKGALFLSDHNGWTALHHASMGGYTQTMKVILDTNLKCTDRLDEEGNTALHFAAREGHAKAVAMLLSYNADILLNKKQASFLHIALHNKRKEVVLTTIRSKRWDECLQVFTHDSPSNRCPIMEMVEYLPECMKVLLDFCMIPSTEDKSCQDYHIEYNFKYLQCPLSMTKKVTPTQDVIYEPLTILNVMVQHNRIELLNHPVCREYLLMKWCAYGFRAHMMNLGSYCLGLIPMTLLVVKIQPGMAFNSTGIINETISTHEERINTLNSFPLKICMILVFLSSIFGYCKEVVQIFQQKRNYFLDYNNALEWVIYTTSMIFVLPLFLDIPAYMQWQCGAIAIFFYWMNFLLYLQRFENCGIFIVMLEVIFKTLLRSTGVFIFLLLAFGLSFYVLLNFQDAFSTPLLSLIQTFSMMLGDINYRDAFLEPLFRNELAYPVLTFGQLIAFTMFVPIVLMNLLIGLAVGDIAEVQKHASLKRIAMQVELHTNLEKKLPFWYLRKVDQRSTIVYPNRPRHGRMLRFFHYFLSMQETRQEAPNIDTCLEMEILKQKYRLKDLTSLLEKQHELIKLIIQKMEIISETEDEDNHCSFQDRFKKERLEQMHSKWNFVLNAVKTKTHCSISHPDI
row,SMILES,EC50 [µM]
1,CCCCCc1cc(O)c2c(c1C(=O)O)OC(C)(C)[C@@H]1CCC(C)=C[C@@H]21 [TETRAHYDROCANNABINOL ACID],0.24
2,C=C(C)[C@@H]1CCC(C)=C[C@H]1c1c(O)cc(CCCCC)cc1O [CANNABIDIOL],0.096
3,C=C(C)[C@@H]1CCC(C)=C[C@H]1c1c(O)cc(CCCCC)c(C(=O)O)c1O [CANNABIDIOLIC ACID],12
4,CCCCCc1cc(O)c(C/C=C(\C)CCC=C(C)C)c(O)c1 [CANNABIGEROL],3.4
5,CCCCCc1cc(O)c2c(c1)OC(C)(C)[C@@H]1CCC(C)=C[C@@H]21 [DRONABINOL],0.23

# Molecular target: T2, Transient receptor potential cation channel subfamily A member 1 (Mus musculus, UniProt Q8BLA8)
# Assay: Agonist activity at mouse TRPA1 channel expressed in CHO cells assessed as increase in intracellular calcium influx
# Assay type: functional, cell-based
# T2 sequence (Q8BLA8 whole entry): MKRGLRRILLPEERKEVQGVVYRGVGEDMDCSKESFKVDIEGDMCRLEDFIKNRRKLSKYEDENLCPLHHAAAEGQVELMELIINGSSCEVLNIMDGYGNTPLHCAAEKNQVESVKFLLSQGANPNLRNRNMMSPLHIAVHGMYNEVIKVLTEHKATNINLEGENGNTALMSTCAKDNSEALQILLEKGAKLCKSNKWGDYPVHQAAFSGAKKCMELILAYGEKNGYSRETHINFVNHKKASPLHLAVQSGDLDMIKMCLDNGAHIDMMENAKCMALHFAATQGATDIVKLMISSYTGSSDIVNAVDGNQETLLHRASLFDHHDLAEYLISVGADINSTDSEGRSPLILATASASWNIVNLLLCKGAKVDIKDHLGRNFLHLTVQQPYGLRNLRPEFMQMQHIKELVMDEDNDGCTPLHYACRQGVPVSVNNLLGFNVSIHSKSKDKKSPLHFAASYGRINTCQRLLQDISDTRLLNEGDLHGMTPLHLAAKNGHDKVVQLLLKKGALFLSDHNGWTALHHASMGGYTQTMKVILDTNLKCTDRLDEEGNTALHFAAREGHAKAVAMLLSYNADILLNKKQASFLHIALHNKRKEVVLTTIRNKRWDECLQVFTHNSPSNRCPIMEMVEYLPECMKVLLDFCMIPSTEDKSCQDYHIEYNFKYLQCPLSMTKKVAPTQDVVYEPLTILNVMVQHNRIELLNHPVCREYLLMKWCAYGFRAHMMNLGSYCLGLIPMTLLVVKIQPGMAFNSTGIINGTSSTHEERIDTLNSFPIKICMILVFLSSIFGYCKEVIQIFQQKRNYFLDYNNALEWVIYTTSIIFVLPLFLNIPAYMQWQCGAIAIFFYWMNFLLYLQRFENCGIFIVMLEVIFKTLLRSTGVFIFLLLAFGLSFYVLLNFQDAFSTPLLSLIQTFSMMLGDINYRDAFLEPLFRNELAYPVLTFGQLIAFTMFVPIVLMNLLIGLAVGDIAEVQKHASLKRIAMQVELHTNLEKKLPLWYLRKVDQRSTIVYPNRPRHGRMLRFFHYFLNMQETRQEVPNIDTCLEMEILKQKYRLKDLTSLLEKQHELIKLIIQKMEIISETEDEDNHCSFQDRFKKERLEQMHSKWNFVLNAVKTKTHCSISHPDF
row,SMILES,EC50 [µM]
1,COCCOC(=O)C1=C(C)NC(C)=C(C(=O)OC(C)C)C1c1cccc([N+](=O)[O-])c1 (configuration not stated) [NIMODIPINE],0.8
2,COC(=O)C1=C(C)NC(C)=C(C(=O)OC)C1c1ccccc1[N+](=O)[O-] [NIFEDIPINE],0.4
3,CCOC(=O)C1=C(C)NC(C)=C(C(=O)OC)C1c1cccc([N+](=O)[O-])c1 (configuration not stated) [NITRENDIPINE],3.8
4,CO/C(O)=C1\C(C)=NC(C)=C([N+](=O)[O-])[C@@H]1c1ccccc1C(F)(F)F,20.8
5,COC(=O)C1=C(C)NC(C)=C(C(=O)OCCN(C)Cc2ccccc2)C1c1cccc([N+](=O)[O-])c1 (configuration not stated) [NICARDIPINE],0.5
6,CO/C(O)=C1\C(C)=NC(C)=C([N+](=O)[O-])[C@H]1c1ccccc1C(F)(F)F,41.5
7,COC(=O)C1=C(C)NC(C)=C([N+](=O)[O-])C1c1ccccc1C(F)(F)F (configuration not stated),32.7

# Molecular target: T1, Transient receptor potential cation channel subfamily A member 1
# Assay: Activation of human TRPA1 channel
row,SMILES,EC50 [µM]
1,CCCCCC(=O)/C=C/C=O,1.9

# Molecular target: T1, Transient receptor potential cation channel subfamily A member 1
# Assay: Antagonist activity at TRPA1 channel
# Assay type: functional
row,SMILES,IC50 [µM]
1,Cc1cc(-c2csc(NC(=O)Cc3cccc4c3C(=O)N(C)C4=O)n2)ccc1Cl,0.25
2,CN1C(=O)c2cccc(CC(=O)Nc3nc(-c4cc(F)c(C(F)(F)F)c(F)c4)cs3)c2C1=O,0.25

# Molecular target: T2, Transient receptor potential cation channel subfamily A member 1
# Assay: Antagonist activity at mouse TRPA1 channel expressed in CHO cells assessed as blockade of agonist-induced whole cell conductance by electrophysiology
# Assay type: functional, cell-based
row,SMILES,EC50 [µM]
1,CC1CCC(C(C)C)C(O)C1 (configuration not stated) [MENTHOL],56

# Molecular target: Transient receptor potential cation channel subfamily V member 1 (Rattus norvegicus, UniProt O35433)
# Assay: Activation of rat TRPV1 channel
# Transient receptor potential cation channel subfamily V member 1, sequence (O35433 whole entry): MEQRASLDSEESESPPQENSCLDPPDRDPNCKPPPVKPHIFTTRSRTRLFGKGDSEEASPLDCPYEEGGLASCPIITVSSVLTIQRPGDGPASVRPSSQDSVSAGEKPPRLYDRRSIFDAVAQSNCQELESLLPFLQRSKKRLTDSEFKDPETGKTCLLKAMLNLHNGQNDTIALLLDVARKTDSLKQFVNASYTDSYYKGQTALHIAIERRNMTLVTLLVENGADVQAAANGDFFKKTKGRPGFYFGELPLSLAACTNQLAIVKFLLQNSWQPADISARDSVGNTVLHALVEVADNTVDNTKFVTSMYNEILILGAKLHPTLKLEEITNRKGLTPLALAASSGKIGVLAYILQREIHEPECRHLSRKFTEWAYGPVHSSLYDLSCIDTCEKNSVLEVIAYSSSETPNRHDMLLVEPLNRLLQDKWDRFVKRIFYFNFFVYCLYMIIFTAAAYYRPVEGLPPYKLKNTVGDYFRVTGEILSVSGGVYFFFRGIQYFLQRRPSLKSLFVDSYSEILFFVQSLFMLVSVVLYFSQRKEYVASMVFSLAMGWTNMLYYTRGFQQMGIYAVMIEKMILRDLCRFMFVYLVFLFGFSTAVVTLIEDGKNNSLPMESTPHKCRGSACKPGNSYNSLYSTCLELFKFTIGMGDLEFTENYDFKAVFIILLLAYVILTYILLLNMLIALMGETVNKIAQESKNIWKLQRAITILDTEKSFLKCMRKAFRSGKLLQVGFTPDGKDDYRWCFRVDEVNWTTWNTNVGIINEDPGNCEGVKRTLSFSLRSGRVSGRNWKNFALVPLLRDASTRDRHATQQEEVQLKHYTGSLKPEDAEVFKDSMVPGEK
row,SMILES,EC50 [µM]
1,C=CCS[S+]([O-])CC=C (configuration not stated) [ALLICIN],51.2

# Molecular target: T1, Transient receptor potential cation channel subfamily A member 1
# Assay: Antagonist activity at TRPA1 channel at 1 uM
# Assay type: functional
row,SMILES,inhibition [%]
1,CN1C(=O)c2cccc(CC(=O)Nc3nc(-c4ccc(C(F)(F)F)c(F)c4)cs3)c2C1=O,97
2,Cc1cc(-c2csc(NC(=O)Cc3cccc4c3C(=O)N(C)C4=O)n2)ccc1Cl,83
3,CN1C(=O)c2cccc(CC(=O)Nc3nc(-c4cc(F)c(C(F)(F)F)c(F)c4)cs3)c2C1=O,92
4,CC(C)c1ccc(NC(=O)Cc2cccc3c2C(=O)N(C)C3=O)cc1,18

# Molecular target: T1, Transient receptor potential cation channel subfamily A member 1
# Assay: Agonist activity at human TRPA1 channel expressed in CHO cells assessed as increase in intracellular calcium levels
# Assay type: functional, cell-based
row,SMILES,EC50 [µM]
1,CC1(C)CCC[C@]2(C)[C@@H](C=O)C(C=O)=CC[C@@H]12 [POLYGODIAL],0.059
2,CC(C)=CCC/C(C)=C/CC/C(C)=C/CSCC(=O)O [FARNESYLTHIOACETIC ACID],90
3,CCCCC(CC)C1NC(=O)N(SC(Cl)(Cl)Cl)C1=O (configuration not stated) [CHLORDANTOIN],3
4,CCN(CC)C(=S)SSC(=S)N(CC)CC,3
5,C=CCSSSCC=C [ALLITRIDIN],0.49
6,CC1(C)CCC[C@]2(C)[C@@H](CC/C=C(/C=O)CC=O)[C@@H](C=O)CC[C@@H]12 [MIOGATRIAL],0.13
7,C=CCSCC=C [DIALLYL SULFIDE],254
8,CC(C)=CCC/C(C)=C/CC/C(C)=C/CSc1ccccc1C(=O)O [SALIRASIB],5
9,CC1(C)CCC[C@@]2(C)[C@H]1CC[C@@]1(CO1)[C@@H]2CC/C=C(/C=O)CC=O [MIOGADIAL],0.2

# Molecular target: T1, Transient receptor potential cation channel subfamily A member 1
# Assay: Antagonist activity at human TRPA1 channel expressed in CHO cells assessed as inhibition of cinnamaldehyde-induced intracellular calcium influx
# Assay type: functional, cell-based
row,SMILES,IC50 [µM]
1,CCC(=N\O)/C(C)=C/c1ccc(C(F)(F)F)nc1,> 100
2,CCC(=N\O)/C(C)=C/c1cnc2ccccc2c1,> 100
3,CCC(=N\O)/C(C)=C/c1ccc(C)nc1,> 100
4,CCC(=N\O)/C(C)=C/c1cnccc1C,> 100
5,CCC(=N\O)/C(C)=C/c1cncc2ccccc12,> 100

# Molecular target: T1, Transient receptor potential cation channel subfamily A member 1
# Assay: Antagonist activity at human TRPA1 channel assessed as inhibition of allyl isothiocyanate-induced intracellular calcium influx
# Assay type: functional, cell-based
row,SMILES,IC50 [µM]
1,Cn1c(=O)c2c(ncn2CC(=O)Nc2nc(-c3ccc(Br)cc3)cs2)n(C)c1=O,< 1
2,CCOc1ccccc1-c1csc(NC(=O)Cn2cnc3c2c(=O)n(C)c(=O)n3C)n1,< 1
3,Cn1c(=O)c2c(ncn2CC(=O)Nc2nc(-c3ccccc3F)cs2)n(C)c1=O,< 1
4,Cn1c(=O)c2c(ncn2CC(=O)Nc2nc(-c3cccc(Cl)c3)cs2)n(C)c1=O,< 1
5,Cn1c(=O)c2c(ncn2CC(=O)Nc2nc(-c3ccccc3)cs2)n(C)c1=O,< 1
6,COc1cccc(-c2csc(NC(=O)Cn3cnc4c3c(=O)n(C)c(=O)n4C)n2)c1,< 1
7,Cn1c(=O)c2c(ncn2CC(=O)Nc2nc(-c3cccc(F)c3)cs2)n(C)c1=O,< 1
8,CCc1ccc(-c2csc(NC(=O)Cn3cnc4c3c(=O)n(C)c(=O)n4C)n2)cc1,< 1
